Experiments:
[1] = molecular target: T1, Serine/threonine-protein kinase TAO2 (Homo sapiens) (UniProt Q9UL54); assay: Inhibition of human recombinant TAO2 at 500 nM in presence of ATP by radiometric assay relative to control
T1 sequence (whole entry): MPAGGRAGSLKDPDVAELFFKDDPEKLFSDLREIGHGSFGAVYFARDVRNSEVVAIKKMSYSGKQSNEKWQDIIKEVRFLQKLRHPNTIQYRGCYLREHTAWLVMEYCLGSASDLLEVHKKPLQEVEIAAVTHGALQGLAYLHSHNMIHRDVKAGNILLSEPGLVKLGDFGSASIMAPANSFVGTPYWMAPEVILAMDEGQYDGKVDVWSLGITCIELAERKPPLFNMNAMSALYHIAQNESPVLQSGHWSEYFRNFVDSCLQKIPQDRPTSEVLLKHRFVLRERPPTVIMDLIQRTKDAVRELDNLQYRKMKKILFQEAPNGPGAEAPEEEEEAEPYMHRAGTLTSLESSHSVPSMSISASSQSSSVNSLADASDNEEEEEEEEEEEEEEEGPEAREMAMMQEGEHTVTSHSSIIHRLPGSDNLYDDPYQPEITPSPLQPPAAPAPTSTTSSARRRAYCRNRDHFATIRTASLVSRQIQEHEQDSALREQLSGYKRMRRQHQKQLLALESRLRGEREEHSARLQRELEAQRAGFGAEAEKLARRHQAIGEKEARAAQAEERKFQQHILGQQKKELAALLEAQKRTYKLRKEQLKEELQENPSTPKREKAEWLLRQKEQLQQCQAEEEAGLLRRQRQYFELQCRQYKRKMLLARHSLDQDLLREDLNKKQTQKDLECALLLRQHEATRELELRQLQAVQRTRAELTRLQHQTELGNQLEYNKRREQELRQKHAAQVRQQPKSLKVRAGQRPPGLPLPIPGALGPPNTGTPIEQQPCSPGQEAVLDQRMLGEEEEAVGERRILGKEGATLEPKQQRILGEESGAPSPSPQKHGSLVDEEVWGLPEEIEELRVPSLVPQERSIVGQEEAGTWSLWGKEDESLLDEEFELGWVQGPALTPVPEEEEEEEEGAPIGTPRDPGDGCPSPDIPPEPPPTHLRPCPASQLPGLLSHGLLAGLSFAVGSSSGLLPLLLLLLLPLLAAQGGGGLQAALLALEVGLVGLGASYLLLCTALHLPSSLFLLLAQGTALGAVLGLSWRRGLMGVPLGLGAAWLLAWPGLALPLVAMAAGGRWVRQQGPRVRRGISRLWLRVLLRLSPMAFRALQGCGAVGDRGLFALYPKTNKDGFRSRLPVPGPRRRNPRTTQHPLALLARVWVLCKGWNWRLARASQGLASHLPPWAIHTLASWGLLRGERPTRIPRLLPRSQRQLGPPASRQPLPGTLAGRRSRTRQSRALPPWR

[2] = molecular target: T2, Serine/threonine-protein kinase 3 (Homo sapiens) (UniProt Q13188); assay: Inhibition of human recombinant MST2 at 500 nM in presence of ATP by radiometric assay relative to control
T2 sequence (whole entry): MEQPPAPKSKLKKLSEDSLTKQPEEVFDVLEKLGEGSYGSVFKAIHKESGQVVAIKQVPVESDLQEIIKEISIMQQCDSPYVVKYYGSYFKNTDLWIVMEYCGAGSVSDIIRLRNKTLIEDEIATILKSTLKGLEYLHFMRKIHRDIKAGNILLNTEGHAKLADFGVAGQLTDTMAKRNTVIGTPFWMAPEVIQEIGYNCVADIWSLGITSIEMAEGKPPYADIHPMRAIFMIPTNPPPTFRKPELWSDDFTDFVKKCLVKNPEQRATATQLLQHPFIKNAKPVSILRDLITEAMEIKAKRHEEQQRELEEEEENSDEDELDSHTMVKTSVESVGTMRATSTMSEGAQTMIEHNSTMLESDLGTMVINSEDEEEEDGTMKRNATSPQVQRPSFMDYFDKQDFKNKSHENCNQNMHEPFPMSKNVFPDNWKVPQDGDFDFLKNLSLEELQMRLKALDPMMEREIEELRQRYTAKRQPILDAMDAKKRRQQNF

[3] = molecular target: Platelet-derived growth factor receptor alpha (Homo sapiens) (UniProt P16234); assay: Inhibition of human recombinant PDGFRa at 500 nM in presence of ATP by radiometric assay relative to control
[4] = molecular target: T3, Serine/threonine-protein kinase PLK4 (Homo sapiens) (UniProt O00444); assay: Inhibition of human recombinant PLK4 at 500 nM related to control ULK1
T3 sequence (whole entry): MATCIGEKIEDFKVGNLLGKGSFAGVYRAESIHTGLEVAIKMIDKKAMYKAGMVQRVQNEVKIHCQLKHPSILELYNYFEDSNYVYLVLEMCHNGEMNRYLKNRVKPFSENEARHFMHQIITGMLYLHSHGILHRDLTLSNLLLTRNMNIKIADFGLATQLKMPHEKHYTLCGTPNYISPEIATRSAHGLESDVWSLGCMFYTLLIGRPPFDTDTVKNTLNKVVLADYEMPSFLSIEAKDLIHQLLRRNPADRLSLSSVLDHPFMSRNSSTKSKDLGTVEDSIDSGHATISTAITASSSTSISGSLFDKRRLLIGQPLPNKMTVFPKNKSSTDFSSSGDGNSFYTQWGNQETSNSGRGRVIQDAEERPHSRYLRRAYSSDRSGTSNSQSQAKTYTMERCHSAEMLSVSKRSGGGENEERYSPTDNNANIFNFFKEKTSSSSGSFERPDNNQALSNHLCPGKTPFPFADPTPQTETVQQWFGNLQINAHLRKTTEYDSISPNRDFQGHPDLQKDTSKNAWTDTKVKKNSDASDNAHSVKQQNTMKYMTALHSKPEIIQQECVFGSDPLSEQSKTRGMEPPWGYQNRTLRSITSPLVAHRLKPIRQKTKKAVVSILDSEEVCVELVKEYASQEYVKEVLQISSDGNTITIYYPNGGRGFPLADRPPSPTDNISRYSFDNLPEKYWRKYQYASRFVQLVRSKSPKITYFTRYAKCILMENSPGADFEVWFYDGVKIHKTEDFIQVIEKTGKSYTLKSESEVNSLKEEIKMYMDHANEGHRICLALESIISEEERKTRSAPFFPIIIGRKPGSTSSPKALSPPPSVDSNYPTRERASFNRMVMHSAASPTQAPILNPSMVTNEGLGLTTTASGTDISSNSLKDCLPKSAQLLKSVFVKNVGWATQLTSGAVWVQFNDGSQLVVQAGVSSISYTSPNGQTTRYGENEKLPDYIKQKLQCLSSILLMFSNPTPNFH

[5] = molecular target: Serine/threonine-protein kinase MARK2 (Homo sapiens) (UniProt Q7KZI7); assay: Inhibition of human recombinant MARK2 at 15 nM related to control ULK1
[6] = molecular target: Tyrosine-protein kinase Fer (Homo sapiens) (UniProt P16591); assay: Inhibition of human recombinant FER at 40 nM in presence of ATP by radiometric assay relative to control
[7] = molecular target: Cyclin-dependent kinase 1 (Homo sapiens) (UniProt P06493); assay: Inhibition of human recombinant CDC2 at 40 nM in presence of ATP by radiometric assay relative to control
Sequence of Cyclin-dependent kinase 1 (Homo sapiens) (P06493 whole entry, looked up): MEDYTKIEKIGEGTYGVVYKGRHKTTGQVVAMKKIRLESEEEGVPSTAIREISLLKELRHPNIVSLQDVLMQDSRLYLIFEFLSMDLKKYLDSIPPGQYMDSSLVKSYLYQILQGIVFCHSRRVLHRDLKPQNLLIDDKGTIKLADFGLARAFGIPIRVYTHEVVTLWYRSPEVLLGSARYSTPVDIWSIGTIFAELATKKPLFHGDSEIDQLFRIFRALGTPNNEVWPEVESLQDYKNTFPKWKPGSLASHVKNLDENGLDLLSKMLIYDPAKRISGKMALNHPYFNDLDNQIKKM

Sequence of Platelet-derived growth factor receptor alpha (Homo sapiens) (P16234 whole entry): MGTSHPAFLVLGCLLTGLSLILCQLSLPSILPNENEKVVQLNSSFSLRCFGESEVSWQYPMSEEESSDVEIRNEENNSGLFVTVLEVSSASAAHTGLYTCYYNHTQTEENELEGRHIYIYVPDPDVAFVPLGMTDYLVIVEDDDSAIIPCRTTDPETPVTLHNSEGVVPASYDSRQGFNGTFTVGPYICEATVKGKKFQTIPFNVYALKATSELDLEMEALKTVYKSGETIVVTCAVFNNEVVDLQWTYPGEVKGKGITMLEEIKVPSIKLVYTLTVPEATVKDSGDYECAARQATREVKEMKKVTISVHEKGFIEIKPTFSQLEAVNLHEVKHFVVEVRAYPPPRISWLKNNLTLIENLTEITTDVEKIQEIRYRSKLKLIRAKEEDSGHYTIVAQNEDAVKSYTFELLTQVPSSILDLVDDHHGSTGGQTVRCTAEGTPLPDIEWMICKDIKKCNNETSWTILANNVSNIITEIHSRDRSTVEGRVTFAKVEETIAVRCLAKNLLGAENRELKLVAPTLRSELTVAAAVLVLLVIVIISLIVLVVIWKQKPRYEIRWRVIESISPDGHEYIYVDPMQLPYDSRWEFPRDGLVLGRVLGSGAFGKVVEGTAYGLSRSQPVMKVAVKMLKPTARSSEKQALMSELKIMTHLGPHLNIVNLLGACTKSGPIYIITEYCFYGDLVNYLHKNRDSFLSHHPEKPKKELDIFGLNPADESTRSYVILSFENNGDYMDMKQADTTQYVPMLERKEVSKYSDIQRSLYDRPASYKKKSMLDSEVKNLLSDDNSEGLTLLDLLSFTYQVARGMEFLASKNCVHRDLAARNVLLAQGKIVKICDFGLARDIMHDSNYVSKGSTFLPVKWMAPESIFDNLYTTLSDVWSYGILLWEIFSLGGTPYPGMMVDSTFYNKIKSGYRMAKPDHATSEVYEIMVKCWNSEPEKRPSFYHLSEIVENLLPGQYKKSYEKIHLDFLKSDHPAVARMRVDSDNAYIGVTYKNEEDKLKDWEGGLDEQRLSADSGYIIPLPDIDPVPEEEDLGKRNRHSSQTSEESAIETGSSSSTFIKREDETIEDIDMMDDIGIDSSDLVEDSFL
Sequence of Tyrosine-protein kinase Fer (Homo sapiens) (P16591 whole entry, looked up): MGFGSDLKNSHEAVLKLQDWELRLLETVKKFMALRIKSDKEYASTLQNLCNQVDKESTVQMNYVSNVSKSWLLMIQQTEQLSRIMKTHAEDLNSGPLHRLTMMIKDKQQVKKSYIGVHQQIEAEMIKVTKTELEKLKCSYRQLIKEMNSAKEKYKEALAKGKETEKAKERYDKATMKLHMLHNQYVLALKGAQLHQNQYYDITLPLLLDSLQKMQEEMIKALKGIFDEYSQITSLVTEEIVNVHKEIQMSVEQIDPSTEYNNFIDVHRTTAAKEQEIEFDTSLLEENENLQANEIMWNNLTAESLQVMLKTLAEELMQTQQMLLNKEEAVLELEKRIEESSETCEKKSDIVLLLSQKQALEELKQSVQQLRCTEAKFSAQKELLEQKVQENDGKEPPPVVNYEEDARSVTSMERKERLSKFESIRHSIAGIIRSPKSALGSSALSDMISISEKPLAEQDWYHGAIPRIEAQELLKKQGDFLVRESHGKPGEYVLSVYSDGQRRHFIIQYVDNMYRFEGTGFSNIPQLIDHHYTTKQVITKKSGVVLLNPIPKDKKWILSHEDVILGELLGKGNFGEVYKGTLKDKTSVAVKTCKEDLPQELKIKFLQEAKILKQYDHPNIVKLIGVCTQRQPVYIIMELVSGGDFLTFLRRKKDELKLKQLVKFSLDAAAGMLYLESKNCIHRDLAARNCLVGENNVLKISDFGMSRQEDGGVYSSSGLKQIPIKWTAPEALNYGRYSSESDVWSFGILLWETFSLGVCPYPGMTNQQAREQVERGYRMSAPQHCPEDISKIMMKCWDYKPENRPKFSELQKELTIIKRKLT
Sequence of Serine/threonine-protein kinase MARK2 (Homo sapiens) (Q7KZI7 whole entry): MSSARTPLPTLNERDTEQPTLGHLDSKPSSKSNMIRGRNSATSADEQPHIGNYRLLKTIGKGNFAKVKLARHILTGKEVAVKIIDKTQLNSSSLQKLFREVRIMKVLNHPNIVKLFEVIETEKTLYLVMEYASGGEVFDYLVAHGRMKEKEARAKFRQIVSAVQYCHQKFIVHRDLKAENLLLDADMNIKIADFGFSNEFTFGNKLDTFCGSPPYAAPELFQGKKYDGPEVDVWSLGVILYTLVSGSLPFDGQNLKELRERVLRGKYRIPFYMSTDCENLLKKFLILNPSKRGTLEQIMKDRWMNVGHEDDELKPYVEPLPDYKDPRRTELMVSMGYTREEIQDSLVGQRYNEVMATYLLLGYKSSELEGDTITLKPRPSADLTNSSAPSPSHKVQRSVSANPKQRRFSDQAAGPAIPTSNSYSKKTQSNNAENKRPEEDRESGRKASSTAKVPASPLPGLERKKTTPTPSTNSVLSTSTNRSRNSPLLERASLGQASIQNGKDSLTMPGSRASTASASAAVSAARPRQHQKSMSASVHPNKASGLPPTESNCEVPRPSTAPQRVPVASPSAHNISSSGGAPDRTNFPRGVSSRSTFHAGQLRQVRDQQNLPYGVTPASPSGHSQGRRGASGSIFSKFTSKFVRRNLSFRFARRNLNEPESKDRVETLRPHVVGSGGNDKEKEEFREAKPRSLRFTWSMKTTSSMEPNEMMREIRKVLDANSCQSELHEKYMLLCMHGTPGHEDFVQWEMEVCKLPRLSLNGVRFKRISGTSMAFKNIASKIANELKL

## CNC(=O)c1ccccc1Oc1nc(Nc2cc(OC)c(OC)c(OC)c2)ncc1Br
[1]
  inhibition: 0%
[2]
  inhibition: 0%
[3]
  inhibition: 0%
[4]
  fold change (FC): 0.62

## CC(C)[C@H](NC(=O)c1cc(-c2cnn3cc(-c4ccc(OCCN5CCCCC5)cc4)cnc23)cs1)C(F)(F)F
[5]
  fold change (FC): 0.53

## O=C(N[C@@H](C1CC1)C(F)(F)F)c1cc(-c2cnn3cc(-c4ccc(F)cc4)cnc23)cs1
[6]
  inhibition: 0%
[7]
  inhibition: 45%

Reference: ChEMBL document CHEMBL5653631, “A Potent and Selective ULK1 Inhibitor Suppresses Autophagy and Sensitizes Cancer Cells to Nutrient Stress” (iScience, 2018)
